Experimental data: patent US11365188B2, “JAK inhibitors” (priority 2018, dated 2022)
pIC50: −log10 of the molar value.

What was measured:
Type in all cases: biochemical
JAK3 = biological target: T1, JAK3 (Homo sapiens, UniProt P52333); assay: JAK3 Assay (Caliper EZ Reader, fluoresceinated peptide); conditions: ATP 3.5 μM; JAK3 0.5 nM; 30 minutes at room temperature; read-out: JAK3 inhibition
T1 sequence (P52333 1-1124): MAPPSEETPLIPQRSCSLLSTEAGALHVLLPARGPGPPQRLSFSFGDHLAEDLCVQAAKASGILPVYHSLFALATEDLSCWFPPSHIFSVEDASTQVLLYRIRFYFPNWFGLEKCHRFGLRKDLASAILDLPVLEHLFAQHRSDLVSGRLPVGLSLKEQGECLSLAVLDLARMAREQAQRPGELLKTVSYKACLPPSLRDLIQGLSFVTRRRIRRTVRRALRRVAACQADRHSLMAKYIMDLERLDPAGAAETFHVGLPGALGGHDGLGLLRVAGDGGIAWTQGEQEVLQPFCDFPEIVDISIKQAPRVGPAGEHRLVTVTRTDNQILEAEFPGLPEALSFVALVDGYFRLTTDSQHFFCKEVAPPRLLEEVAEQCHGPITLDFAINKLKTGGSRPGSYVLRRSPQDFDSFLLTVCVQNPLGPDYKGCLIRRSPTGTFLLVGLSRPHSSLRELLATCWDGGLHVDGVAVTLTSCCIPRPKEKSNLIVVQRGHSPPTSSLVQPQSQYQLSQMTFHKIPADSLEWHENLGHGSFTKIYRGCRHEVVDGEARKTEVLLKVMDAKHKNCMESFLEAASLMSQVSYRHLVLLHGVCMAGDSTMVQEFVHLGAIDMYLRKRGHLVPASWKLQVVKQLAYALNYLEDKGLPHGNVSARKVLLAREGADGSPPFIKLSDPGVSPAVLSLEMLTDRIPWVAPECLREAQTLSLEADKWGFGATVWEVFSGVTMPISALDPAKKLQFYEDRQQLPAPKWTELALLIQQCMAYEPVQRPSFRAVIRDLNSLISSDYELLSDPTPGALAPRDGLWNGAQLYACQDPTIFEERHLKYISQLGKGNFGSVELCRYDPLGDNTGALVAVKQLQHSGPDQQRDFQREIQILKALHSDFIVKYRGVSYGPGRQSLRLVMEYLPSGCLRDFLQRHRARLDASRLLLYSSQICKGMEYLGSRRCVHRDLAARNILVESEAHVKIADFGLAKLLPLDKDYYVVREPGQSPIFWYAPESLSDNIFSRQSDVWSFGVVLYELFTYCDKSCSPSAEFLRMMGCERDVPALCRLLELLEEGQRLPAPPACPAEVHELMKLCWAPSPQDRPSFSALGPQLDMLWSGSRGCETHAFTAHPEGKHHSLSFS
Protocol: JAK3 Assay 384-well plates in the left foot butoxy measured progress. The final assay volume was 25 μL, 250 nL 100× compounds, 10 μL enzyme mix and 15 μL substrate mix (fluoresceinated peptide and ATP) in assay buffer (50 mM HEPES (pH 7.5), 10 mM MgCl2, 0.01% TritonX-100, 0.01% Brij35, 0.5 mM EGTA and 2 mM DTT) prepared as test compound. By mixing the JAK3 with substrates and test compounds to start the reaction. The reaction mixture was incubated for 30 minutes at room temperature, then added 30 μL stop buffer for each sample to terminate the reaction with 50 mM EDTA. After termination of the kinase reaction, the proportion of phosphorylated product was determined as a fraction of total peptide substrate using Caliper EZ Reader II. Inhibition data were calculated by comparison with 100% of the reaction mixture without enzyme inhibition and vehicle-only reaction mixture billion % inhibition compared. The final concentration of reagents in the assays is: ATP, 3.5 μM; JAK3 fluorescent peptide (5-FAM-EEPLYWSFPAKKK-CONH2), 3 μM; JAK3, 0.5 nM; and DMSO, 1%. Dose response curve were generated to determine the concentration required for IC50 of JAK3 activity.

JAK1 = JAK1 (Homo sapiens, UniProt P23458); assay: JAK Kinase Assay (JAK1, Caliper EZ Reader, fluoresceinated peptide); conditions: ATP 76.5 μM; JAK1 10 nM; 120 minutes at room temperature; read-out: JAK1 inhibition
Protocol: JAK Kinase Assay 384-well plates in the left foot butoxy measured progress. The final assay volume was 25 μL, 250 nL 100× compounds, 10 μL enzyme mix and 15 μL substrate mix (fluoresceinated peptide and ATP) in assay buffer (20 mM HEPES (pH 7.5), 10 mM MgCl2, […], 0.5 mM EGTA and 2 mM DTT) prepared as test compound. By mixing the JAK1 with substrates and test compounds to start the reaction. There action mixture was incubated for 120 minutes at room temperature, then added 30 μL stop buffer for each sample to terminate the reaction with 50 mM EDTA. After termination of the kinase reaction, the proportion of phosphorylated product was determined as a fraction of total peptide substrate using Caliper EZ Reader II. Inhibition data were calculated by comparison with 100% of the reaction mixture without enzyme inhibition and vehicle-only reaction mixture billion % inhibition compared. The final concentration of reagents in the assays is: ATP, 76.5 μM; JAK1 fluorescent peptide (5-FAM-EEPLYWSFPAKKK-CONH2), 3 μM; JAK1, 10 nM, and DMSO, 1%. Dose response curve were generated to determine the concentration required for IC50 of JAK activity.

JAK2 = JAK2 (Homo sapiens, UniProt O60674); assay: JAK2 Assay (Caliper EZ Reader, fluoresceinated peptide); conditions: ATP 11.4 μM; JAK2 0.25 nM; 15 minutes at room temperature; read-out: JAK2 inhibition
Protocol: JAK2 Assay 384-well plates in the left foot butoxy measured progress. The final assay volume was 25 μL, 250 nL 100× compounds, 10 μL enzyme mix and 15 μL substrate mix (fluoresceinated peptide and ATP) in assay buffer (50 mM HEPES (pH 7.5), 10 mM MgCl2, 0.01% TritonX-100, 0.01% Brij35, 0.5 mM EGTA and 2 mM DTT) prepared as test compound By mixing the JAK2 with substrates and test compounds to start the reaction. The reaction mixture was incubated for 15 minutes at room temperature, then added 30 μL stop buffer for each sample to terminate the reaction with 50 mM EDTA. After termination of the kinase reaction, the proportion of phosphorylated product was determined as a fraction of total peptide substrate using Caliper EZ Reader 1 Inhibition data were calculated by comparison with 100% of the reaction mixture without enzyme inhibition and vehicle-only reaction mixture billion % inhibition compared. The final concentration of reagents in the assays is: ATP, 11.4 μM; JAK2 fluorescent peptide (5-FAM-EEPLYWSFPAKKK-CONH2), 3 μM; JAK2, 0.25 nM; and DMSO, 1%. Dose response curve were generated to determine the concentration required for IC50 of JAK2 activity.

JAK2, sequence (O60674 whole entry, species assumed): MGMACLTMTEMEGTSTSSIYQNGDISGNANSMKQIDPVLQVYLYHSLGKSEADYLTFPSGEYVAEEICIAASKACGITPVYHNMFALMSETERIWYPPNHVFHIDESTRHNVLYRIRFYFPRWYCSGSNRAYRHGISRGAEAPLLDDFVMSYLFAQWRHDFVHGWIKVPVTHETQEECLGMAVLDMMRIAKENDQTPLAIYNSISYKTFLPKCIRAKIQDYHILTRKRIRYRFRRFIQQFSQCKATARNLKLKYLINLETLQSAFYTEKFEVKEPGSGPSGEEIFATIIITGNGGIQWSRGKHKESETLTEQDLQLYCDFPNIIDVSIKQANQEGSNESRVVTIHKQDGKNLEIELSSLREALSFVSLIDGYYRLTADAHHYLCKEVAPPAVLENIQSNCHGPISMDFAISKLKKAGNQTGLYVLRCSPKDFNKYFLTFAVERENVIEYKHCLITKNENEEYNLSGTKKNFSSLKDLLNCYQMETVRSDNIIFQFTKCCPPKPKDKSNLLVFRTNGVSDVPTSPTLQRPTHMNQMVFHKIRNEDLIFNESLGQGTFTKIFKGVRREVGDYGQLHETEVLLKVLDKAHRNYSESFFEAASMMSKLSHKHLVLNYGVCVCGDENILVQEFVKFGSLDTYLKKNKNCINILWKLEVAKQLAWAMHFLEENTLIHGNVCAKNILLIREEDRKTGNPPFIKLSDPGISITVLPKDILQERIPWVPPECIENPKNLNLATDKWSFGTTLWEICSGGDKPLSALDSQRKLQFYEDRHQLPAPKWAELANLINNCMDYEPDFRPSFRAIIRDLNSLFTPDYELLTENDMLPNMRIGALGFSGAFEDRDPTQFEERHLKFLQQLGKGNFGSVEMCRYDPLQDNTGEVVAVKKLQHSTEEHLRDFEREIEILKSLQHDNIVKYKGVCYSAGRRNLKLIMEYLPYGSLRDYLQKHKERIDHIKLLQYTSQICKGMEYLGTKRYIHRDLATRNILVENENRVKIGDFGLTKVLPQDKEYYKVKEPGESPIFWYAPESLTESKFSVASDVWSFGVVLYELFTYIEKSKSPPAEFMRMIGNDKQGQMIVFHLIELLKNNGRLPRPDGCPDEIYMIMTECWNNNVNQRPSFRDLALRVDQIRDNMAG
JAK1, sequence (P23458 whole entry, species assumed): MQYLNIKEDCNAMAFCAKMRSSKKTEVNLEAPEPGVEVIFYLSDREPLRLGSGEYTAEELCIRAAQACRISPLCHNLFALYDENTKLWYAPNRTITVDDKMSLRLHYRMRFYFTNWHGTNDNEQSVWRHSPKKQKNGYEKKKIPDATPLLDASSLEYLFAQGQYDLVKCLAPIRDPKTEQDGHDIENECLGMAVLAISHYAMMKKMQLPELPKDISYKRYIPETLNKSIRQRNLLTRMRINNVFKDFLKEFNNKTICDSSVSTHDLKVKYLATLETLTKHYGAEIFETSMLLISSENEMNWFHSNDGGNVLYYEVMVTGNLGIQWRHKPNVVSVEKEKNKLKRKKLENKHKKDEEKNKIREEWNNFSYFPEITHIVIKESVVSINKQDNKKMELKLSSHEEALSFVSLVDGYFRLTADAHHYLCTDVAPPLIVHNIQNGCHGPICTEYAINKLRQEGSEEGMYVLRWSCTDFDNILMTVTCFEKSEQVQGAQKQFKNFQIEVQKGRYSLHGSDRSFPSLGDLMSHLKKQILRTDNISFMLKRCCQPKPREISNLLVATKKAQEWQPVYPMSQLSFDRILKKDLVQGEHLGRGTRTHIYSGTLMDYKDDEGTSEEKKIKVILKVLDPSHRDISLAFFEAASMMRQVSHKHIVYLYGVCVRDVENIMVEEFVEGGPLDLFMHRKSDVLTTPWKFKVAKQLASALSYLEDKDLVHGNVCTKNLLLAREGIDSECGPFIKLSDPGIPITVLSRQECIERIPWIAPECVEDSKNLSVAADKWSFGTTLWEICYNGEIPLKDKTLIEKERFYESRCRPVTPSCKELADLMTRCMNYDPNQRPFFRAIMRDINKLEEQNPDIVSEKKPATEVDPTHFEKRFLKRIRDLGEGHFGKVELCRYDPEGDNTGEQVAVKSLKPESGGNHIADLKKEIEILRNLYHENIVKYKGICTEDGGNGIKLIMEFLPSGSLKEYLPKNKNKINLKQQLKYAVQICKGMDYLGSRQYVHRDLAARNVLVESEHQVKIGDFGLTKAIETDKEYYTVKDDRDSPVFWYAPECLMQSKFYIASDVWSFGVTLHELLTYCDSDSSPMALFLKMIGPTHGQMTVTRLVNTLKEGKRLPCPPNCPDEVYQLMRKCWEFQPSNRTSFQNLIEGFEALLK

Compound | pIC50 (JAK3) | pIC50 (JAK1) | pIC50 (JAK2)
CCC(=O)N1CC2(CC(N(C)c3ncnc4[nH]ccc34)C2)C1 [Compound 5, 1-(6-(methyl(7H-pyrrolo[2,3-d]pyrimidin-4-yl)amino)-2-azaspiro[3.3]heptan-2-yl)propan-1-one] | 5.00 to 6.00 | 6.00 to 7.00 | 6.00 to 7.00
CCS(=O)(=O)N1CC2(CC(N(C)c3ncnc4[nH]ccc34)C2)C1 [Compound 6, N-(2-(ethylsulfonyl)-2-azaspiro[3.3]heptan-6-yl)-N-methyl-7H-pyrrolo[2,3-d]pyrimidin-4-amine] | ≤ 5.00 | 6.00 to 7.00 | 6.00 to 7.00
COC(=O)N1CC2(CC(N(C)c3ncnc4[nH]ccc34)C2)C1 [Compound 7, methyl 6-(methyl(7H-pyrrolo[2,3-d]pyrimidin-4-yl)amino)-2-azaspiro[3.3]heptan-2-carboxylate] | 5.00 to 6.00 | 6.00 to 7.00 | 5.00 to 6.00
CCOC(=O)N1CC2(CC(N(C)c3ncnc4[nH]ccc34)C2)C1 [Compound 8, ethyl 6-(methyl(7H-pyrrolo[2,3-d]pyrimidin-4-yl)amino)-2-azaspiro[3.3]heptane-2-carboxylate] | 5.00 to 6.00 | 6.00 to 7.00 | 5.00 to 6.00
CN(c1ncnc2[nH]ccc12)C1CC2(C1)CN(C(=O)c1cccnc1)C2 [Compound 9, (6-(methyl(7H-pyrrolo[2,3-d]pyrimidin-4-yl)amino)-2-azaspiro[3.3]heptan-2-yl)(pyridin-3-yl)methanone] | 5.00 to 6.00 | 7.00 to 8.00 | 6.00 to 7.00
CN(c1ncnc2[nH]ccc12)C1CC2(C1)CN(C(=O)CCC#N)C2 [Compound 10, 4-(6-(methyl(7H-pyrrolo[2,3-d]pyrimidin-4-yl)amino)-2-azaspiro[3.3]heptan-2-yl)-4-oxobutanenitrile] | 5.00 to 6.00 | 7.00 to 8.00 | 6.00 to 7.00
CN(c1ncnc2[nH]ccc12)C1CC2(C1)CN(C(=O)c1cccc(C#N)c1)C2 [Compound 11, 3-(6-(methyl(7H-pyrrolo[2,3-d]pyrimidin-4-yl)amino)-2-azaspiro[3.3]heptane-2-carbonyl)benzonitrile] | 5.00 to 6.00 | 7.00 to 8.00 | 6.00 to 7.00
CN(c1ncnc2[nH]ccc12)C1CC2(C1)CN(C(=O)C1CCC(=O)CC1)C2 [Compound 12, 4-(6-(methyl(7H-pyrrolo[2,3-d]pyrimidin-4-yl)amino)-2-azaspiro[3.3]heptane-2-carbonyl)cyclohexanone] | 5.00 to 6.00 | 7.00 to 8.00 | 6.00 to 7.00
CN(c1ncnc2[nH]ccc12)C1CC2(C1)CN(C(=O)c1cccc(C(F)(F)F)c1)C2 [Compound 13, (6-(methyl(7H-pyrrolo[2,3-d]pyrimidin-4-yl)amino)-2-azasprio[3.3]heptan-2-yl)(3-(trifluoromethyl)phenyl)methanone] | 5.00 to 6.00 | 6.00 to 7.00 | 5.00 to 6.00
CN(c1ncnc2[nH]ccc12)C1CC2(C1)CN(C(=O)Cc1ccc(C#N)cc1)C2 [Compound 15, 4-(2-(6-(methyl(7H-pyrrolo[2,3-d]pyrimidin-4-yl)amino)-2-azaspiro[3.3]heptan-2-yl)-2-oxoethyl)benzonitrile] | 5.00 to 6.00 | 6.00 to 7.00 | 5.00 to 6.00
CN(c1ncnc2[nH]ccc12)C1CC2(C1)CN(C(=O)CCS(C)(=O)=O)C2 [Compound 16, 1-(6-(methyl(7H-pyrrolo[2,3-d]pyrimidin-4-yl)amino)-2-azaspiro[3.3]heptan-2-yl)-3-(methylsulfonyl)propan-1-one] | 5.00 to 6.00 | 6.00 to 7.00 | 5.00 to 6.00
CN(c1ncnc2[nH]ccc12)C1CC2(C1)CN(C(=O)c1cccc(OC(F)(F)F)c1)C2 [Compound 17, (6-(methyl(7H-pyrrolo[2,3-d]pyrimidin-4-yl)amino)-2-azaspiro[3.3]heptan-2-yl)(3-(trifluoromethoxy)phenyl)methanone] | ≤ 5.00 | 6.00 to 7.00 | 5.00 to 6.00
CN(c1ncnc2[nH]ccc12)C1CC2(C1)CN(C(=O)c1cnccn1)C2 [Compound 18, (6-(methyl(7H-pyrrolo[2,3-d]pyrimidin-4-yl)amino)-2-azaspiro[3.3]heptan-2-yl)(pyrazin-2-yl)methanone] | ≤ 5.00 | 6.00 to 7.00 | 5.00 to 6.00
CN(c1ncnc2[nH]ccc12)C1CC2(C1)CN(C(=O)C1(C#N)CC1)C2 [Compound 19, 1-(6-(methyl(7H-pyrrolo[2,3-d]pyrimidin-4-yl)amino)-2-azaspiro[3.3]heptane-2-carbonyl)cyclopropanecarbonitrile] | 5.00 to 6.00 | 7.00 to 8.00 | 6.00 to 7.00
CN(c1ncnc2[nH]ccc12)C1CC2(C1)CN(C(=O)c1cc3ccccc3s1)C2 [Compound 20, benzo[b]thiophen-2-yl(6-(methyl(7H-pyrrolo[2,3-d]pyrimidin-4-yl)amino)-2-azaspiro[3.3]heptan-2-yl)methanone] | 5.00 to 6.00 | 7.00 to 8.00 | 5.00 to 6.00
CN(c1ncnc2[nH]ccc12)C1CC2(C1)CN(C(=O)CCC(F)(F)F)C2 [Compound 21, 4,4,4-trifluoro-1-(6-(methyl(7H-pyrrolo[2,3-d]pyrimidin-4-yl)amino)-2-azaspiro[3.3]heptan-2-yl)butan-1-one] | 5.00 to 6.00 | 7.00 to 8.00 | 6.00 to 7.00
CN(c1ncnc2[nH]ccc12)C1CC2(C1)CN(C(=O)c1csc3ccccc13)C2 [Compound 22, benzo[b]thiophen-3-yl(6-(methyl(7H-pyrrolo[2,3-d]pyrimidin-4-yl)amino)-2-azaspiro[3.3]heptan-2-yl)methanone] | 5.00 to 6.00 | 7.00 to 8.00 | 5.00 to 6.00
